“Also recorded” adds a separate entry of the source. Where no end group is shown, it is not given here.
Tests used:
5C.C7 T cells = experiment: In vivo antigen persistence (division of later transferred 5C.C7 T cells); design: species or system mouse; conditions: peptide injected 4, 2, 1, 0 wk before transfer; division at 48 h; in words
Text: We addressed potential differential in vivo antigen persistence by injecting MCC or K5 peptide at various times prior to transfer of CFSE-labeled 5C.C7 T cells (Figure S7). In this experiment, the extent of division of the transferred T cells serves as a readout of amount of antigen present. […] We then considered the possibility that the blunted responses were occurring because the amount of K5 pMHC complexes was limiting in vivo. In order to directly examine the stimulatory function of in vivo–pulsed APCs, we used irradiated splenic DCs isolated from mice immunized with the different peptides to activate naïve 5C.C7 T cells in vitro, without the addition of exogenous peptide (Figure 2B,C).
Supplementary file pbio.1000481.s007.eps: Figure S7 MCC and K5 peptides persist equally in vivo. B10.A mice were immunized with the indicated peptides at 4, 2, 1, and 0 wk before adoptive transfer of CFSE-labeled 5C.C7 T cells. 5C.C7 T cell division was analyzed at 48 h after transfer as a measure of peptide antigen persistence over time. All histograms are gated on CD4^+CD45.1^+ 5C.C7 T cells. Data shown are representative of two mice per condition and two experiments. (0.99 MB EPS) Click here for additional data file.

[1] = test system: 5C.C7 RAG2−/− lymphocytes; assay type: cell-based, mouse; conditions: 3 h
Protocol: Cells were cultured in a 37°C humidified chamber with 5% C0_2 in complete RPMI1640 (supplemented with 10% FCS, […], 100 U/mL penicillin and streptomycin, 2 µM 2-mercaptoethanol). Single-cell suspensions were prepared from lymph nodes harvested from 5C.C7 RAG2-deficient mice (routinely >90% Vα11+Vβ3+ by flow cytometry) and stimulated in triplicate in 96-well round-bottom plates with irradiated (2,000 rad) B10.A splenocytes and the indicated peptides for 60 h. Proliferation was monitored by the addition of ^3H-methyl-thymidine (1 µCi/well). Cells were harvested onto glass-fiber filters using a Tomtec harvester, and filters were counted using a MicroBeta scintillation counter (Perkin-Elmer).

OT-1 TCR = OT-1 TCR ligands, Listeria monocytogenes; in words; ref [25]; cited from earlier work
Text: The reason we observed attenuation at the high end of the ligand potency spectrum may be because we were able to examine T cell responses to a superagonist peptide, which possibly exceeds a ligand potency threshold at which T cell attenuation is observed. Attempts to find other strong 5C.C7 TCR ligands, which would facilitate examination o ...

Row | Sequence | In vivo peptide antigen persistence (5C.C7 T cells) | EC50 [1] [nM] | Potency of T cell responses in vitro and in vivo (OT-1 TCR)
1 | ANERADLIAYFKAATKF [K5] | persist equally and for a few weeks in vivo | 17.5 | –
2 | ANERADLIAYLKQASK [102S] | – | 160 | –
3 | ANERADLIAYLKQATK [MCC, moth cytochrome c (MCC) peptide] | persist equally and for a few weeks in vivo | 37.8 | –
4 | ANERADLIAYPKAATKF [K3] | – | 24.9 | –
5 | SIINFEKL [natural OT-1 TCR ligand] | – | – | induced the most robust response; also recorded: exhibited the most potent responses in vitro and in vivo
